How the values were obtained:
[1] = Deodorizing activity by head-space method using gas chromatography (general statements)
From the text: The resent inventors have researched on various materials to discover the effective deodorant in the head-space method using a gas chromatography.

[2] = Test 1 deodorizing effect test (head-space gas chromatography, pH 7.5); conditions: reduction ratio of methylmercaptan vs sample-free system; sample 7.5 mg/ml, pH 7.5, 25 ppm sodium methylmercaptan, 30 minutes at 37° C.
Protocol: After 1.0 ml of the sample solution and 0.5 ml of 25 ppm sodium methylmercaptan was added in a vial to shake the same for 30 minutes at 37° C., and then 200 μl of a vapor phase component in the vial was gathered. An amount of formed methylmercaptan was measured by the gas chromatography to compare the same with a sample-free system, thereby to find a reduction ratio of methylmercaptan as a deodorizing coefficient. […] The gas chromatography uses “GC-9A” commercially available from Shimazu Manufacturing Co., Ltd. The measuring conditions were described below. [table]

[3] = Gas chromatography analysis of sulfides with caramels and maltols; conditions: garlic and onion odor ingredients
Protocol: Also, in Japanese laid-open publication 62-169720, it is also disclosed that caramels and maltols (3-hydroxy-2-methyl-γ-pyrone) obtained from heating sucrose or glucose show deodorizing effect against garlic and onion odors. If, however, the odor composition was analyzed by a gas chromatography, then no change in odor composition was observed.

[4] = Test 3 deodorizing effect test against ammonia (Kitagawa detecting tube); conditions: 50 mg sample in 1.96 ml water, 40 μl ammonia solution (0.28%), 5 minutes at 37° C.
Protocol: Each of 50 mg of the palatinose-derived thermal decomposition of Example 1 and sodium copper chlorophyllin was dissolved into 1.96 ml of water in 100 ml of the vial respectively. Then, 40 μl of an ammonia solution (0.28%) was added and shaken for 5 minutes at 37° C. and 100 ml of the vapor phase component in the vial was measured under a vacuum pressure by use of a Kitagawa detecting tube (ammonia No.3). The deodorizing rate of each sample was calculated from the concentration of ammonia in case of addition of no sample.

Q: For OC[C@H]1O[C@H](OC[C@H]2OC(O)(CO)[C@@H](O)[C@@H]2O)[C@H](O)[C@@H](O)[C@@H]1O (some centres unmarked) [Palatinose, palatinose], which “deodorizing activity / effect against methyl mercaptan (in words)” value [1] is on record?
A: Its value is “does not provide such the effect”.

Q: What about the “Deodorant coefficient (%)” value [2] of the same molecule?
A: The value was 0.0%.

Q: With OC[C@H]1O[C@@](CO)(O[C@H]2O[C@H](CO)[C@@H](O)[C@H](O)[C@H]2O)[C@@H](O)[C@@H]1O [Sucrose, sucrose] as the molecule, how does the “Deodorant coefficient (%)” value [2] read?
A: Its value is 0.0%.

Q: With Cc1occc(=O)c1O [maltols, 3-hydroxy-2-methyl-γ-pyrone] as the molecule, how does the “change in composition of sulfides (methyl marcaptan, allyl marcaptan) by gas chromatography” value [3] read?
A: The value was “no change in the composition was observed”.

Q: Which “Rate of deodorizing (%)” value [4] does the source give for sodium copper chlorophyllin here?
A: The value was 9.2%.
